Results from US20140272041A1, “METHODS OF REDUCING PATHOGENS DURING PROCESSING OR POST-PROCESSING OF BEEF, POULTRY AND OTHER MEAT PRODUCTS” (BIRKO Corporation, priority 2009, published 2014).
Like-named read-outs stand apart in the source and are kept apart here.

How the values were obtained:
[1] = test system: Salmonella enterica serovar Typhimurium (ATCC 14028); assay: Log reduction on inoculated meat samples by immersion; settings: 5% (w/w) total acid (60% lactic+40% citric acid) + 1200 ppm SLS, meat samples immersed 3 minutes at 108° F. (Meat Experiment #43)
Experimental: (§1) Meat samples were allowed to equilibrate to ambient temperature (74° F.) and inoculated with 25 μl of a late log phase culture of either Escherichia coli serotype O157:H7 (ATCC 43888) or Salmonella enterica serovar Typhimurium (ATCC 14028). Samples were allowed to rest for 10 minutes for the bacteria to attach. After attachment the inoculated samples were immersed in the treatment solutions as detailed in each experiment described below. After immersion, meat samples were immediately placed into a sterile Whirlpack Bag with 10-15 ml of neutralizing buffer to inactivate any residual antimicrobial on the meat surface. Samples were massaged for 3 minutes to extract surviving bacteria from the meat. Bacterial counts in the fluid were enumerated by plating on Violet Red Bile Agar (E. coli) or Salmonella Shigella Agar (Salmonella) and counting colonies after at least 16-24 hours of incubation.
The meat samples described in Example 16 were treated with 5% (w/w) total acid (60% lactic+40% citric acid) with addition of 1200 ppm of the anionic surfactant sodium lauryl sulfate (SLS) for 3 minutes at 108° F.

[2] = test system: Escherichia coli serotype O157:H7 (ATCC 43888); assay: as above
Experimental: as §1, with “incubation. […]” for “incubation.”

[3] = test system: Salmonella enterica, ATCC 14028; assay: Log kill in aqueous bacterial suspension, plating on TSA; type: cell-based; settings: 15 seconds, c. 74° F.
Experimental: As before, reaction mixtures were incubated for 15 seconds at room temperature (c. 74° F.). The results are depicted in Table XII and graphed in FIG. 12.
However, in this example the effectiveness of such mixtures was tested against Salmonella enterica, ATCC 14028. […] The balance was water. Increasing amounts of these “reagents” were added to a series of reaction tubes.
As before each reaction was initiated by the addition of bacteria, incubated at ambient temperature for 15 seconds and terminated by addition of quench buffer. The tests were performed at room temperature. The bacterial titer of each mixture was determined by preparation and plating of serial dilutions on TSA. The results for both reagents are reported in Table XIII and graphed in FIG. 13.

[4] = test system: E. coli ATCC 43888 (O157:H7); assay: as above; type: cell-based, Escherichia coli
E. coli ATCC 12435 = assay: Log kill / surviving titer in aqueous bacterial suspension, plating on TSA; type: cell-based, Escherichia coli; settings: […] wt./wt. % WAC in 2.5% lactic acid, 15 seconds, 74 to 80 degrees F.
Experimental: The “reaction” (i.e. interaction of antimicrobial agent and the target organism) was initiated by the addition of bacteria to the antimicrobial solution. The reaction was allowed to proceed for the respective time periods listed in Table I (i.e., at least 15 seconds each) and was terminated at the end of that time by adding quench buffer comprising 3.2 M potassium phosphate buffer, pH 7.2. The sample then was evaluated using serial 10-fold dilutions into sterile phosphate buffer as needed to determine, on Tryptic Soy agar (“TSA”), the titer of surviving bacteria. TSA is a medium that allows the growth of most bacteria.
The reduction in the bacterial count is expressed as the “log kill” which is defined as log10 [initial cfu/ml]−log10 [remaining cfu/ml]; where “cfu” refers to “colony forming unit.” All log kills reported herein are positive “base 10.”). Inasmuch as the standard assay mixture contained only ca. 25×10^6 cfu initially (equivalent to 7.398 log) the theoretical maximum kill that can be measured with this assay system is ca. 7.4 log and the practical measuring limit is ca. 6 log. Therefore, high levels of log reduction were monitored by plating reaction mixtures directly (without dilution) onto agar medium. The results are reported in Table I and illustrated in graph format in FIG. 1. […] The tests were replicated with E. coli ATCC 43888, a pathogenic strain of E. coli O157:H7. […]
After incubation for 15 seconds at ambient temperature the reaction was quenched by addition of phosphate buffer and the titer of surviving bacteria was determined by plating on TSA as described in the previous examples. […] The amphoteric and zwitterionic surfactants, which carry a net positive charge under the conditions of the reaction mixture, caused enhancement of the log kill by lactic acid. All anionic surfactants tested caused substantial enhancement of the log kill by lactic acid.

[5] = 1200 ppm SLS, 5% total acid at ratio 4:6 citric acid:lactic acid, 2 minutes at 109-111° F., control 5% lactic acid only
[6] = 1400 ppm SLS added to 5% total acid 60:40 lactic:citric, 3 minutes at 109° F.

In the case of CCCCCCCCCCCCOS(=O)(=O)[O-].[Na+] [Sodium Lauryl Sulfate, sodium lauryl sulfate], the “Log Reduction” value [1] is reported as 3.28 log, the “effect of increasing SLS concentration on kill by lactic acid” value ([2]; 4% (w/w) lactic acid with 0-1700 ppm sodium lauryl sulfate, 2 minutes at 108° F.) is reported as “enhanced kill” and the “enhancement of reduction when SLS is included” value [2, 5] is reported as “ca. 1.6 log”. The “increase of microbial reduction when SLS is included” value [2, 5] was 40 fold, the “enhancement of reduction when SLS is included” value [2, 6] was “ca. 1.6 log” and the “increase of microbial reduction when SLS is included” value [2, 6] was 40 fold. The “Log Kill” value ([3]; sodium lauryl sulfate 0.004 wt./wt. % in […] lactic acid) was 3.82 log, the “Log Kill” value ([3]; sodium lauryl sulfate 0.008 wt./wt. % in […] lactic acid) was 4.4 log and the “Log Kill” value ([3]; sodium lauryl sulfate 0.012 wt./wt. % in […] lactic acid) was 5.489 log. The “Log Kill” value ([3]; sodium lauryl sulfate 0.016 wt./wt. % in […] lactic acid) was 5.489 log, the “Log Kill” value ([3]; sodium lauryl sulfate 0.020 wt./wt. % in […] lactic acid) was 5.97 log and the “Log Kill” value [4] was 4.8 log. The “in 2.5% Lactic Acid (Log Kill)” value [4] was 5.81 log, the “in […] Lactic Acid (Log Kill)” value [4] was 5.83 log and the “Log Kill” value ([4]; sodium lauryl sulfate 0.004 wt./wt. % in […] lactic acid, 15 seconds, 75 degrees F.) was 2.08 log. The “Log Kill” value ([4]; sodium lauryl sulfate 0.012 wt./wt. % in […] lactic acid, 15 seconds, 75 degrees F.) was 5.92 log, the “Log Kill” value ([4]; sodium lauryl sulfate 0.016 wt./wt. % in […] lactic acid, 15 seconds, 75 degrees F.) was 5.92 log and the “in 2.5% Lactic Acid (Log Kill)” value ([4]; sodium lauryl sulfate 0.02 wt./wt. % in 2.5% lactic acid) was 4.81 log. For the same compound, the “in 2.5% Lactic Acid (Log Kill)” value ([4]; sodium lauryl sulfate 0.04 wt./wt. % in 2.5% lactic acid) was 4.81 log, the “in […] Lactic Acid (Log Kill)” value ([4]; sodium lauryl sulfate 0.04 wt./wt. % in […] lactic acid, 15 seconds, 75 degrees F.) was 5.83 log and the “in 2.5% Lactic Acid (Log Kill)” value ([4]; sodium lauryl sulfate 0.06 wt./wt. % in 2.5% lactic acid) was 5.81 log. The “in […] Lactic Acid (Log Kill)” value ([4]; sodium lauryl sulfate 0.06 wt./wt. % in […] lactic acid, 15 seconds, 75 degrees F.) was 5.34 log, the “in 2.5% Lactic Acid (Log Kill)” value ([4]; sodium lauryl sulfate 0.10 wt./wt. % in 2.5% lactic acid) was 5.81 log and the “in […] Lactic Acid (Log Kill)” value ([4]; sodium lauryl sulfate 0.10 wt./wt. % in […] lactic acid, 15 seconds, 75 degrees F.) was 5.83 log. For the same compound, the “Log Kill (Lactic Acid + Surfactant)” value (E. coli ATCC 12435) was 6.43 log.
